Converted amounts (≈) assume the structure as drawn. The source made the active and inactive calls. No cut-off for these calls is given here.
Key:
Adenosine receptor A1 = biological target: T1, Adenosine receptor A1 (Homo sapiens, UniProt P30542); experiment: Displacement of [3H]DPCPX from human adenosine A1 receptor expressed in HEK293 cells; format: cell-based
T1 sequence (P30542 whole entry): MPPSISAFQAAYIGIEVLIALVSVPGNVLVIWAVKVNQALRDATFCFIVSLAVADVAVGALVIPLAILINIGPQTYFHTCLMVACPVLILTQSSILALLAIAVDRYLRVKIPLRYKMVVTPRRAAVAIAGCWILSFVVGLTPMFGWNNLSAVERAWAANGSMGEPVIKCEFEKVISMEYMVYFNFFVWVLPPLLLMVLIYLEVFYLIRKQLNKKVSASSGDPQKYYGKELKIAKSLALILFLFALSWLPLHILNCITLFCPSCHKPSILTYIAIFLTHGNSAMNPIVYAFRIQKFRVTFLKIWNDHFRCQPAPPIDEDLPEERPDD

Homo sapiens = organism: Homo sapiens; experiment: Selectivity ratio of Ki for human adenosine A1 receptor to Ki for human adenosine A2A receptor
[1] = Metabolic stability in human liver microsomes assessed as intrinsic clearance by LC-MS/MS analysis; format: ADME, Microsome
[2] = Metabolic stability in rat liver microsomes assessed as intrinsic clearance by LC-MS/MS analysis; format: ADME, Microsome
[3] = Permeability from apical to basolateral side of the human Caco-2 membrane by LC-MS/MS analysis; format: ADME, cell-based; details: read-out: permeability
[4] = Aqueous solubility in phosphate-buffered saline at pH 7.4; format: physicochemical
Adenosine receptor A2a [5] = biological target: Adenosine receptor A2a (Rattus norvegicus, UniProt P30543); experiment: Displacement of [3H][…] from rat adenosine A2A receptor expressed in CHO cells; format: cell-based
Rattus norvegicus [6] = experiment: Inhibition of haloperidol-induced catalepsy in rat at 30 mg/kg, po after 2 hrs; format: functional
Adenosine receptor A2a [7] = biological target: T2, Adenosine receptor A2a (Homo sapiens, UniProt P29274); experiment: Antagonist activity at human adenosine A2A receptor expressed in CHO cells assessed as inhibition of CGS-21680-induced cAMP production; format: functional, cell-based
[8] = Lipophilicity, log D at pH 7.4; format: physicochemical; details: buffer
Adenosine receptor A2a [9] = biological target: T2, Adenosine receptor A2a; experiment: Displacement of [3H][…] from human adenosine A2A receptor expressed in HEK293 cells; format: cell-based
Cytochrome P450 3A4 [10] = biological target: T3, Cytochrome P450 3A4 (Homo sapiens, UniProt P08684)
Description: Inhibition of CYP3A4 in human liver microsomes by LC-MS/MS analysis

[11] = AUC (0 to 24 hrs) in rat plasma at 10 mg/kg, po; format: ADME, organism-based; set-up: time < 24 hr, dose 10 mg/kg, route oral
[12] = biological target: Voltage-gated inwardly rectifying potassium channel KCNH2 (Homo sapiens, UniProt Q12809); experiment: Inhibition of human ERG by electrophysiology assay
Rattus norvegicus [13] = experiment: Inhibition of haloperidol-induced catalepsy in rat at 10 mg/kg, po after 2 hrs; format: functional; set-up: scale not given: the % may be the effect or the level left
Rattus norvegicus [14] = organism: Rattus norvegicus; experiment: Inhibition of haloperidol-induced catalepsy in rat assessed as minimal effective dose; format: functional; details: read-out: MED
Rattus norvegicus [15] = experiment: Inhibition of haloperidol-induced catalepsy in rat at 1 mg/kg, po; format: functional, organism-based; set-up: dose 1 mg/kg
[16] = Aqueous solubility at pH >= […]; format: physicochemical; details: buffer
Rattus norvegicus [17] = experiment: Inhibition of haloperidol-induced catalepsy in rat at 3 mg/kg, po; format: functional, organism-based; set-up: dose 3 mg/kg
[18] = Plasma concentration in rat at 10 mg/kg, po after 2 hrs; format: ADME, organism-based; set-up: dose 10 mg/kg, route oral
[19] = Drug concentration in rat brain at 10 mg/kg, po after 2 hrs; format: ADME, organism-based; set-up: dose 10 mg/kg, route oral; details: read-out: Drug uptake
[20] = Dissociation constant, pKa of the compound; format: physicochemical
Cytochrome P450 3A4 [21] = biological target: T3, Cytochrome P450 3A4; experiment: Inhibition of recombinant CYP3A4-catalyzed dealkylation of BFC assessed as formation of 7HFC by microplate fluorescence technique; format: ADME; details: recombinant enzyme
Liver microsomes = experiment: Induction of glutathione adducts formation in human liver microsomes; set-up: species or system Microsome
Rattus norvegicus [22] = experiment: Potentiation of L-dopa-induced rotational behavior in unilaterally 6-hydroxydopamine-lesioned po dosed Wistar rat pretreated 30 mins before L-dopa challenge measured over 5 hrs; format: functional, organism-based
Rattus norvegicus [23] = experiment: Potentiation of L-dopa-induced rotational behavior in unilaterally 6-hydroxydopamine-lesioned po dosed Wistar rat assessed as minimal effective dose pretreated 30 mins before L-dopa challenge measured over 5 hrs; format: functional; details: read-out: MED
[24] = AUC ((0 to 24 hrs)) in mouse at 300 mg/kg, po; format: ADME, organism-based; set-up: time < 24 hr, dose 300 mg/kg, route oral; details: plasma
[25] = Solubility at pH 3.7; format: physicochemical; details: buffer
[26] = AUC ((0 to 24 hrs)) in dog at 30 mg/kg, po; format: ADME, organism-based, Canis lupus familiaris; set-up: time < 24 hr, dose 30 mg/kg, route oral; details: plasma
[27] = Permeability across MDCK cell membrane by cell-based MDR assay; format: ADME, Canis lupus familiaris; details: dog, MDCK-MDR1; read-out: permeability

T3 sequence (P08684 whole entry): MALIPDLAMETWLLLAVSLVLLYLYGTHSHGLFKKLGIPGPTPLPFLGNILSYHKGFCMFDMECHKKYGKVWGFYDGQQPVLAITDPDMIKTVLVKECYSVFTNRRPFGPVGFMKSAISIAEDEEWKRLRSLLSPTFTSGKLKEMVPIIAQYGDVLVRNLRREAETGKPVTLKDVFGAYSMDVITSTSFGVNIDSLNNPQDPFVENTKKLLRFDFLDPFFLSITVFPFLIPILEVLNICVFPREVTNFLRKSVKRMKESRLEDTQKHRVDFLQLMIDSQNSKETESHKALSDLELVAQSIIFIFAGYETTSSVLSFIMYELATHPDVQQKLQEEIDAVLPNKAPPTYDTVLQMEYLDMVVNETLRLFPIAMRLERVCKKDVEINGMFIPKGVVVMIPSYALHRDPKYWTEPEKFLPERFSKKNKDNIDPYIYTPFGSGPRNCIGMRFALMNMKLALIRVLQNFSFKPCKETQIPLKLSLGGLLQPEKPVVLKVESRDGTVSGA
T2 sequence (P29274 whole entry): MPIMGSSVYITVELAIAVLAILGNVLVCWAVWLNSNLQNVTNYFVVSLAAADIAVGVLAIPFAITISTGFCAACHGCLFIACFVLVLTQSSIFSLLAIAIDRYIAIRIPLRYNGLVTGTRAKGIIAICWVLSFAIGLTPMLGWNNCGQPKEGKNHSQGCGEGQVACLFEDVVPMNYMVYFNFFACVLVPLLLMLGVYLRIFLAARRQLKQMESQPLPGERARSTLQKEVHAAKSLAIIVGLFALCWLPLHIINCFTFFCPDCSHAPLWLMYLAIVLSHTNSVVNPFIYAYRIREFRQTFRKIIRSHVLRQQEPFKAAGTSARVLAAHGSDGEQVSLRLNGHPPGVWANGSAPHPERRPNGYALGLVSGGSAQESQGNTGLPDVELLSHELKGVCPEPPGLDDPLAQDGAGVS
Chain of Adenosine receptor A2a (Rattus norvegicus, UniProt P30543) (P30543 whole entry): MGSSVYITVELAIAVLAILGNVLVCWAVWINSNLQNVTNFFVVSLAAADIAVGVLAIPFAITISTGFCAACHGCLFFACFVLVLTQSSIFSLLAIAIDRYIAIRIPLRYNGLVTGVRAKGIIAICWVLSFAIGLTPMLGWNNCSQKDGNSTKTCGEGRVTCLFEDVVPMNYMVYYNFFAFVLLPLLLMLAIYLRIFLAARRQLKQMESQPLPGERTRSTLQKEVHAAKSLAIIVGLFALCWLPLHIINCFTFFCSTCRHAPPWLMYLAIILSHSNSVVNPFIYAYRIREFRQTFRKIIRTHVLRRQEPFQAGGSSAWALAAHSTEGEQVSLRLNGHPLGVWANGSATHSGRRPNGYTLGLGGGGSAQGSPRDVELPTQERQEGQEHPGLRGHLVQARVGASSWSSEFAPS
Chain of Voltage-gated inwardly rectifying potassium channel KCNH2 (Q12809 whole entry): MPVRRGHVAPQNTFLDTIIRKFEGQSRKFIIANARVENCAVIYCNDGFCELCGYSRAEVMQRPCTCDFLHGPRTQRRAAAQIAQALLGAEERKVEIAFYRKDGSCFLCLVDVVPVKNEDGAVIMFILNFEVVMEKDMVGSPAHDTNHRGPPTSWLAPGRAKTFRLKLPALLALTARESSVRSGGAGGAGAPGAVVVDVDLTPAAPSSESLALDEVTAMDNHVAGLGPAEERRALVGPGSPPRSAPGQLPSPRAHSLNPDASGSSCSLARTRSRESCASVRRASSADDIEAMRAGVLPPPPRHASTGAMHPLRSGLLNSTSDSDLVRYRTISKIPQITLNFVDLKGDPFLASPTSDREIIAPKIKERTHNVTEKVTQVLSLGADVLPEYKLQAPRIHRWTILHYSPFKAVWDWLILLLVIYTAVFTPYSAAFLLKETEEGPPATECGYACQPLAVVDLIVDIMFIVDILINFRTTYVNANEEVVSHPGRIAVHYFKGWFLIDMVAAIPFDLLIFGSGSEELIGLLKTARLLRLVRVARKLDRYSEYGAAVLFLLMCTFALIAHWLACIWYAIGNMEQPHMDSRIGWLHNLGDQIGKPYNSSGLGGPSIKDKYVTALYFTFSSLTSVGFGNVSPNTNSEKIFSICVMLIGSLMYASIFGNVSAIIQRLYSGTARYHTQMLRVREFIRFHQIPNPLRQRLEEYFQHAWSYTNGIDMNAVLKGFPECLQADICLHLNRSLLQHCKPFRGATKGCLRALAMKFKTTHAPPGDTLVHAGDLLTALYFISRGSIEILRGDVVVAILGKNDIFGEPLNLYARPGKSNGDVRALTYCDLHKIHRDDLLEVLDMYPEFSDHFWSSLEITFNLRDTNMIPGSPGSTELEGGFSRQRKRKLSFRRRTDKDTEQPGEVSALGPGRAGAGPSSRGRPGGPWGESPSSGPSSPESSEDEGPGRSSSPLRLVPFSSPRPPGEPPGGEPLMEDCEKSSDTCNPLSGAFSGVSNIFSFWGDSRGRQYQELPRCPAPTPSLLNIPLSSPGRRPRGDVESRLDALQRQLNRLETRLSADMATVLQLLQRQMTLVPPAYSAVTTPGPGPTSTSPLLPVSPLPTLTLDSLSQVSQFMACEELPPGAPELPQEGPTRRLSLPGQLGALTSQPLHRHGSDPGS

SMILES | Ki (Adenosine receptor A1) [nM] | Ratio Ki (Homo sapiens) | CLint scaled [1] [mL/min/kg] | CLint scaled [2] [mL/min/kg] | Ki (Adenosine receptor A2a [5]) [nM] | IC50 (Adenosine receptor A2a [7]) [nM] | Ki (Adenosine receptor A2a [9]) [nM] | IC50 (Cytochrome P450 3A4 [10]) [nM] | minimal effective dose (Rattus norvegicus [14]) [mg/kg] | concentration at 2 h [18] [ng/mL] | concentration at 2 h [19] [ng/g] | other results
COc1cccc(-c2cc(NC(C)=O)nc(-n3nc(C)cc3C)n2)c1F | 110 | 187 | 36 | 360 | 12 | 32 | 0.6 | > 20000 | – | – | – | Papp A→B [3]: 26 ×10⁻⁶ cm/s; solubility [4]: 170 µg/mL (≈ 478 µM); Activity (Rattus norvegicus [6]): inactive; logD [8]: 2
CC(=O)Nc1cc(-c2cncc(N3CCOCC3)c2)nc(-n2nc(C)cc2C)n1 | 220 | 74 | 12 | 150 | – | – | 3 | > 20000 | – | – | – | –
CC(=O)Nc1cc(-c2cccc(N3CCCOCC3)n2)nc(-n2nc(C)cc2C)n1 | 280 | 121 | 94 | 1000 | – | – | 2.3 | > 20000 | – | – | – | –
COc1cncc(-c2cc(NC(C)=O)nc(-n3nc(C)cc3C)n2)c1 | 190 | 82 | 35 | 120 | 62 | 57 | 2.3 | 18000 | 1 | – | – | AUC(0-t) at 24 h [11]: 1430 ng·h/mL; IC50 [12]: 24000 nM; Activity (Rattus norvegicus [13]): 64%; Activity (Rattus norvegicus [15]): Active; solubility [16]: < 10 µg/mL; Activity (Rattus norvegicus [17]): Active
COc1cccc(-c2cc(NC(C)=O)nc(-n3nc(C)cc3C)n2)c1 | 65 | 71 | – | – | – | – | 0.92 | 740 | – | – | – | –
COC(=O)Nc1cc(-c2cncc(OC)c2)nc(-n2nc(C)cc2C)n1 | 780 | 106 | 16 | 93 | 68 | 167 | 7.4 | 16000 | 10 | – | – | Activity (Rattus norvegicus [13]): 46%
COc1cc(OC)cc(-c2cc(NC(C)=O)nc(-n3nc(C)cc3C)n2)c1 | 22 | 116 | 9.3 | 110 | 3 | 17 | 0.19 | 380 | 1 | 1330 | 1150 | Papp A→B [3]: 2.4 ×10⁻⁶ cm/s; solubility [4]: < 20 µg/mL; Activity (Rattus norvegicus [13]): 49%; logD [8]: 3.2
COCCN(C)c1cccc(-c2cc(NC(C)=O)nc(-n3nc(C)cc3C)n2)n1 | 55 | 76 | 52 | 490 | 14 | 70 | 0.72 | 2500 | 10 | 220 | 870 | Activity (Rattus norvegicus [13]): 70%
CCOC(=O)Nc1cc(-c2cncc(OC)c2)nc(-n2nc(C)cc2C)n1 | 620 | 79 | 38 | 59 | 82 | 196 | 7.8 | 20000 | – | – | – | Activity (Rattus norvegicus [6]): inactive
CC(=O)Nc1cc(-c2cccc(N3CCOCC3)n2)nc(-n2nc(C)cc2C)n1 | 130 | 155 | 3 | 25 | 10 | 13 | 0.83 | > 20000 | 3 | 150 | 170 | Activity ([12]; human): Not Active; solubility [4]: 140 µg/mL (≈ 356 µM); Activity (Rattus norvegicus [13]): 55%; pKa [20]: 2.9; Activity (Cytochrome P450 3A4 [21]): Not Active
CC(=O)Nc1cc(-c2ccncc2)nc(-n2nc(C)cc2C)n1 | 820 | 21 | – | – | – | – | 40 | 8500 | – | – | – | –
CC(=O)Nc1cc(-c2ccnc(N3CCOCC3)c2)nc(-n2nc(C)cc2C)n1 | 580 | 48 | – | – | – | – | 12 | – | – | – | – | –
CC(=O)Nc1cc(-c2cccc(N(C)C)n2)nc(-n2nc(C)cc2C)n1 | 81 | 133 | 54 | 1600 | 20 | 156 | 0.61 | 25000 | 30 | 290 | 180 | –
CC(=O)Nc1cc(-c2cncc(O)c2)nc(-n2nc(C)cc2C)n1 | 195 | 67 | 41 | 140 | 32 | 64 | 2.9 | 18000 | – | 264 | 154 | Activity (Rattus norvegicus [6]): inactive; logD [8]: 2.4
COC1CN(c2cccc(-c3cc(NC(C)=O)nc(-n4nc(C)cc4C)n3)n2)C1 | 34 | 72 | 25 | 160 | 1.5 | 18 | 0.47 | 11000 | – | 150 | 560 | solubility [4]: 30 µg/mL (≈ 76.2 µM); logD [8]: 3.6; pKa [20]: 3.4
CCC(=O)Nc1cc(-c2cncc(OC)c2)nc(-n2nc(C)cc2C)n1 | 70 | 39 | 29 | 110 | 21 | 31 | 1.8 | 17000 | 1 | 860 | 1380 | Activity (Rattus norvegicus [13]): 69%; logD [8]: 2.8; pKa [20]: 3.6
CC(=O)Nc1cc(-c2cccnc2)nc(-n2nc(C)cc2C)n1 | 2100 | 18 | – | – | – | – | 120 | > 20000 | – | – | – | –
COC1CCN(c2cccc(-c3cc(NC(C)=O)nc(-n4nc(C)cc4C)n3)n2)CC1 | 85 | – | 41 | 540 | – | – | 0.44 | – | 1 | – | – | Activity (Rattus norvegicus [13]): 88%; Activity (Rattus norvegicus [15]): Active; Activity (Liver microsomes): Not Active; Activity (Rattus norvegicus [22]): Dose-dependent effect; minimal effective dose (Rattus norvegicus [23]): 3 mg/kg; AUC(0-t) at 24 h [24]: 25700 ng·h/mL; solubility [25]: 1000 µg/mL (≈ 2370 µM); AUC(0-t) at 24 h [26]: 3400 ng·h/mL
CC(=O)Nc1cc(-c2cc(N3CCOCC3)ccn2)nc(-n2nc(C)cc2C)n1 | 4600 | 53 | – | – | – | – | 87 | – | – | – | – | –
COc1cncc(-c2cc(NC(=O)CN3CCOCC3)nc(-n3nc(C)cc3C)n2)c1 | 940 | 235 | 3 | 150 | 30 | 49 | 4 | > 20000 | – | – | – | Activity (Rattus norvegicus [6]): inactive; logD [8]: 2.4; pKa [20]: 5.3
CC(=O)Nc1cc(-c2cccc(N)n2)nc(-n2nc(C)cc2C)n1 | 440 | 57 | – | – | – | – | 7.9 | > 20000 | – | – | – | –
CC(=O)Nc1cc(-c2cccc(N3CCCC3)n2)nc(-n2nc(C)cc2C)n1 | 7.2 | 28 | – | – | – | – | 0.26 | > 20000 | – | – | – | –
CC(=O)Nc1cc(-c2cccc(N3CCCCC3)n2)nc(-n2nc(C)cc2C)n1 | 31 | 54 | – | – | – | – | 0.56 | – | – | – | – | –
COCCOc1cncc(-c2cc(NC(C)=O)nc(-n3nc(C)cc3C)n2)c1 | 110 | – | 3 | 43 | – | – | 3.1 | – | – | – | – | –
CC(=O)Nc1cc(-c2cccc(N3CCN(C)CC3)n2)nc(-n2nc(C)cc2C)n1 | 120 | 175 | 3 | 25 | 7 | 7 | 0.71 | > 20000 | – | 53 | 91 | IC50 [12]: 540 nM; solubility [4]: 240 µg/mL (≈ 590 µM); Activity (Rattus norvegicus [6]): inactive; pKa [20]: 7.6; Papp [27]: 15.4 ×10⁻⁶ cm/s
CC(=O)Nc1cc(-c2ccccc2)nc(-n2nc(C)cc2C)n1 | 290 | 3.3 | – | – | – | – | – | 43000 | – | – | – | –
